Some test systems named below: 786-0 renal; BT-549 breast; MDA-MB-435; UO-31 renal; SNB-75 CNS; K-562 leukemia; HCT-116 colon; NCI-H23 lung; HOP-92 NSCLC; A498 renal.
What all share (assay): NCI anticancer screen, dose series, 48 h

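1) Cells in 96-well plates. 2) Compound, 48 h, 5 concentrations. 3) Linear interpolation between surrounding doses. 4) Unreached endpoint = highest concentration. GI50: concentration for 50% inhibition of growth. The concentration for full growth arrest is given as TGI.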 A value given as a limit tells only on which side of the number the result lay.

As to `O=Cc1ccccc1B(O)O`, the TGI with 786-0 renal is greater than 100 µM; with BT-549 breast it was 95.9 µM; with MDA-MB-435, greater than 100 µM; in the assay with UO-31 renal it was greater than 100 µM; in the assay with SNB-75 CNS, greater than 100 µM; in the assay on K-562 leukemia, greater than 100 µM. The TGI in the assay with HCT-116 colon is greater than 100 µM.
For the molecule `S=c1ssc(Oc2ccccc2)c1Cl`, the GI50 in the assay with 786-0 renal was 6630 nM; in the assay on NCI-H23 lung it was 12600 nM; in the assay on BT-549 breast it was 12700 nM; in the assay with MDA-MB-435 it was 14.2 µM; in the assay on HOP-92 NSCLC, 14800 nM; with UO-31 renal, 19000 nM. In addition, the GI50 with SNB-75 CNS is 18 µM; in the assay with K-562 leukemia, 2680 nM. For the same molecule, the TGI worked out at 20.7 µM with 786-0 renal; 50.9 µM in the assay with NCI-H23 lung; 31.7 µM with BT-549 breast; 27.2 µM with MDA-MB-435; 36.2 µM in the assay with HOP-92 NSCLC; 58.8 µM in the assay on UO-31 renal. In addition, the TGI was 45 µM with SNB-75 CNS and greater than 100 µM with K-562 leukemia.
Regarding `COc1ccc(NC(=O)COCCOCCNC[C@@H]2C(=O)O[C@H]3[C@H]2CC/C(COC(=O)OC/C2=C/CC[C@@]4(C)O[C@H]4[C@H]4OC(=O)[C@@H](CN(C)C)[C@@H]4CC2)=C\CC[C@@]2(C)O[C@@H]32)c(O)c1C(N)=O`, the GI50 was 6170 nM with 786-0 renal; 9060 nM with NCI-H23 lung; 6190 nM with BT-549 breast; 5.19 µM in the assay on MDA-MB-435; 16.6 µM in the assay on A498 renal; 1710 nM in the assay on HOP-92 NSCLC. Moreover, the GI50 in the assay on UO-31 renal was 2510 nM; in the assay with SNB-75 CNS, 10.2 µM; with HCT-116 colon, 3500 nM. Moreover, the TGI with 786-0 renal was 13.7 µM; in the assay on NCI-H23 lung, 22.1 µM; in the assay on BT-549 breast, 12.9 µM; in the assay with MDA-MB-435, 12.3 µM; with A498 renal, greater than 50000 nM; in the assay with HOP-92 NSCLC, 6.93 µM. For the same molecule, the TGI with UO-31 renal is 9.13 µM; with SNB-75 CNS it was greater than 50 µM; in the assay on HCT-116 colon it was 9.86 µM.
In the case of `CC[C@@]1(OC(=O)CN)C(=O)OCc2c1cc1n(c2=O)Cc2cc3c(N)cccc3nc2-1`, the GI50 was less than 10 nM in the assay with 786-0 renal; less than 10 nM with NCI-H23 lung; 37.2 nM in the assay with BT-549 breast; 0.0476 µM in the assay on MDA-MB-435; less than 0.016 µM in the assay on A498 renal; 37.1 nM in the assay with HOP-92 NSCLC. Further, the GI50 with K-562 leukemia was less than 36.7 nM. For the same molecule, the TGI in the assay with 786-0 renal is 0.203 µM; with NCI-H23 lung, 0.0765 µM; with BT-549 breast, 1.63 µM; in the assay on MDA-MB-435, 0.336 µM; in the assay with A498 renal it was 156 nM; with HOP-92 NSCLC, greater than 100 µM.
For the molecule `COc1ccc(S(=O)(=O)Nc2cc(/C=C\c3cc(OC)c(OC)c(OC)c3)ccc2OC)cc1`, the GI50 in the assay with 786-0 renal was 361 nM; in the assay on NCI-H23 lung it was 480 nM; in the assay on BT-549 breast, 197 nM; in the assay on A498 renal, 0.0357 µM; with HOP-92 NSCLC it was 97.4 nM; in the assay with UO-31 renal, 131 nM. Besides, the GI50 with SNB-75 CNS is 0.0708 µM; in the assay on K-562 leukemia it was 53 nM; in the assay with HCT-116 colon, 79.7 nM. Besides, the TGI in the assay on 786-0 renal is 95.6 µM; in the assay on NCI-H23 lung it was greater than 100 µM; in the assay with BT-549 breast, greater than 100 µM; with A498 renal, 382 nM; with HOP-92 NSCLC, 12 µM; in the assay with UO-31 renal, 7.48 µM. Further, the TGI in the assay with SNB-75 CNS was 91.4 µM; in the assay with K-562 leukemia, greater than 100 µM; in the assay with HCT-116 colon, greater than 100 µM.
On to `CC(=O)OCC(=O)[C@@]12OC(C)(C)O[C@@H]1C[C@H]1[C@@H]3CC=C4C[C@@H](O)CC[C@]4(C)[C@H]3CC[C@@]12C`, for which the TGI is greater than 100 µM with 786-0 renal; greater than 100 µM with NCI-H23 lung; 96.4 µM with BT-549 breast; greater than 100 µM in the assay with MDA-MB-435; greater than 100000 nM in the assay with A498 renal; greater than 100 µM in the assay on UO-31 renal. For the same molecule, the TGI in the assay on SNB-75 CNS was 29.4 µM; in the assay with K-562 leukemia, greater than 100 µM; in the assay on HCT-116 colon it was greater than 100 µM.
Take `COc1ccc(/C(=N\O)c2cc(C)c(OC)c(C)c2)cc1O`: the GI50 in the assay with 786-0 renal is 40.7 nM; with NCI-H23 lung, 31.4 nM; in the assay on BT-549 breast it was 26.1 nM; in the assay on MDA-MB-435, less than 0.01 µM; in the assay with HOP-92 NSCLC it was 410 nM; in the assay on UO-31 renal, 70.9 nM. In addition, the GI50 in the assay on HCT-116 colon is less than 10 nM. The TGI in the assay on 786-0 renal, in the assay with NCI-H23 lung, in the assay on BT-549 breast, in the assay on HOP-92 NSCLC, in the assay on UO-31 renal and in the assay with HCT-116 colon was greater than 100 µM throughout.
In the case of `O=C(Nc1ccc2[nH]c(=S)sc2c1)Nc1ccccc1F`, the GI50 in the assay with 786-0 renal is 51600 nM; in the assay on NCI-H23 lung, 35800 nM; in the assay on BT-549 breast, 32000 nM; in the assay with MDA-MB-435, 23.1 µM; with A498 renal, 40.5 µM; in the assay on UO-31 renal it was 4090 nM. Moreover, the GI50 with SNB-75 CNS is 22.9 µM; with K-562 leukemia, 28600 nM; in the assay on HCT-116 colon, 37700 nM. For the same molecule, the TGI was greater than 100 µM in the assay with 786-0 renal; greater than 100 µM in the assay with NCI-H23 lung; greater than 100 µM with BT-549 breast; greater than 100 µM in the assay with MDA-MB-435; greater than 100000 nM in the assay with A498 renal; 22.5 µM with UO-31 renal. Moreover, the TGI in the assay with SNB-75 CNS, in the assay on K-562 leukemia and in the assay with HCT-116 colon was greater than 100 µM throughout.
Take `O=C(c1ccccc1)C(Br)C(Br)c1cccc([N+](=O)[O-])c1` (configuration not stated): the GI50 in the assay on 786-0 renal is 1610 nM; with NCI-H23 lung, 2250 nM; in the assay with BT-549 breast, 2000 nM; with MDA-MB-435, 2.52 µM; with HOP-92 NSCLC, 1550 nM; in the assay with UO-31 renal, 1680 nM. Further, the GI50 with SNB-75 CNS is 6.48 µM; in the assay on HCT-116 colon it was 864 nM. The TGI with 786-0 renal was determined as 3.07 µM; in the assay with NCI-H23 lung, 6.45 µM; in the assay with BT-549 breast, 3.65 µM; with MDA-MB-435 it was 7.19 µM; in the assay on HOP-92 NSCLC it was 3.89 µM; with UO-31 renal, 3.14 µM. Also, the TGI with SNB-75 CNS worked out at 19.8 µM; with HCT-116 colon, 2.08 µM.
Consider `CC(C)c1c(O)ccc2c1CCC1C(C)(C)CCCC21C` (configuration not stated), for which the TGI was 32.2 µM with 786-0 renal; 31.8 µM with NCI-H23 lung; 32.8 µM in the assay on BT-549 breast; 38.5 µM in the assay on MDA-MB-435; 32.8 µM in the assay on HOP-92 NSCLC; 31.4 µM in the assay on UO-31 renal. Further, the figures for the TGI with SNB-75 CNS, with K-562 leukemia and in the assay with HCT-116 colon were 33.1 µM, 50 µM and 31 µM, respectively.

These data come from PubChem BioAssay (NCI).
